Results from patent publication US20230381168A1, “ADJUNCTIVE THERAPY FOR DEPRESSION” (ANeuroTech IP BV, priority 2020, published 2023).
“Also recorded” adds a separate entry of the source.

Key:
[1] = tested on: patients suffering from moderate to severe MDD; assay: double-blind randomized multi-centre study, reported side effects (treatment emergent adverse effects); format: in vivo, human
[2] = tested on: participants with major depressive disorder on continuing SSRI/SNRI; assay: placebo-controlled crossover study, PROMIS Sleep-related impairments questionnaire; format: in vivo, human
Protocol: Participants randomized to receive Treatment B were administered placebo containing drinkable water with […] flavor. Each study week the participants received 10 mL of their study medication in an amber glass bottle with dropper containing 200 droplets. […] The sleep-related impairments were assessed using the PROMIS Sleep-related impairments questionnaire, completed in the morning, midday and evening. […] A higher T-score reflects more sleep-related impairments during the day.

[3] = tested on: subjects with a medical history of major depressive disorder and current insomnia; assay: cognitive performance by Mini Mental State Examination (MMSE) in treated case subjects PT1-PT3; format: in vivo, human
Protocol: During the last three weeks of this period, the subject was treated with transcranial anodal direct current stimulation (tDCS) in daily sessions of 30 minutes in the morning every day of the week except Saturday and Sunday. The tDCS dose was 2 mA. The anode was placed over the left dorsolateral prefrontal cortex and the cathode was placed over the right dorsolateral prefrontal cortex. […] This combined treatment was continued for a following 3 weeks.

mACh receptors = details: cited from earlier work
[4] = tested on: participants with major depressive disorder on continuing SSRI/SNRI; assay: placebo-controlled crossover study, PROMIS cognitive function questionnaire (subjective cognitive function); format: in vivo, human
Protocol: Eligible participants were admitted to the study center on Day 1 of Period 1 for first dosing. […] The cognitive function was measured using the PROMIS cognitive function questionnaire, completed in the morning, midday and evening. […] A higher T-score reflects a better cognitive functioning of the participant. […] Positive responders were further evaluated for the key secondary objective.

D4 receptor = biological target: T1, D4 receptor (Homo sapiens, UniProt P21917); details: cited from earlier work
T1 sequence (P21917 1-419): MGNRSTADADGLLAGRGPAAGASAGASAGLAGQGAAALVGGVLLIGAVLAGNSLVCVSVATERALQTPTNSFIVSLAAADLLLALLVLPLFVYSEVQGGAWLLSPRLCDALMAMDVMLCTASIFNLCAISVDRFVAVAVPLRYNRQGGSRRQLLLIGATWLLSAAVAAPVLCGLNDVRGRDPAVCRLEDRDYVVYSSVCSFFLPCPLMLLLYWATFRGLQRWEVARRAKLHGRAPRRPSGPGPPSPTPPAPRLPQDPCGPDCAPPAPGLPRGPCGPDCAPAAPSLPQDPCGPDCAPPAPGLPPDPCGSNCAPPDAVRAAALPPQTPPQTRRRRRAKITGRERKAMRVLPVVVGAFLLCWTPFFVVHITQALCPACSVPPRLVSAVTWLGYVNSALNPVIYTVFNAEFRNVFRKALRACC

H1 receptor = H1 receptor (Homo sapiens, UniProt P35367); details: cited from earlier work
[5] = tested on: subject with medical history of major depression and severe insomnia; assay: sleep analysis with full PSG battery (EEG, EMG, infra-red video and sound): clinical relevant restlessness events; format: in vivo, human; details: PT1, after 3 weeks pipamperone 20 mg/day with tDCS
Description: While during sleep the subject had no own noise making behaviour with an observed stable background noise level of +/−40 dB in the room, during these events the subject produced clear-cut enhancement of noise in the room with acute values of more than 50 dB combined with observable muscle activity (as observed by the EMG pattern), a state of being awake (as observed by the EEG) and an agitated behaviour (as observed by the clinical inspection infra-red video images).

[6] = tested on: MDD patients on antidepressant (partial responsive depression); assay: analysis of 62 MDD patients treated with adjunctive low-dose pipamperone; format: in vivo, human
[7] = tested on: participants with major depressive disorder on continuing SSRI/SNRI; assay: placebo-controlled crossover study, sleep quality questionnaire; format: in vivo, human; details: all participants; 14 mg
Protocol: Participants randomized to receive Treatment B were administered placebo containing drinkable water with […] flavor. Each study week the participants received 10 mL of their study medication in an amber glass bottle with dropper containing 200 droplets. […] The sleep quality of the participants was measured using a scale going from very bad (1) to excellent (5). This questionnaire was only completed in the morning.

[8] = tested on: participants with major depressive disorder on continuing SSRI/SNRI; assay: placebo-controlled crossover study, Karolinska Sleepiness Scale; format: in vivo, human
Protocol: Participants randomized to receive Treatment B were administered placebo containing drinkable water with […] flavor. Each study week the participants received 10 mL of their study medication in an amber glass bottle with dropper containing 200 droplets. […] The sleepiness of the participants was also be measured using the Karolinska Sleepiness Scale going from very sleepy, having great difficulty staying awake, fighting sleep (9) to extremely alert (1). This questionnaire was completed in the morning, midday and evening.

[9] = tested on: patients suffering from moderate to severe MDD; assay: double-blind randomized multi-centre study, MADRS assessed by the clinical rater; format: in vivo, human
Protocol: Cognitive enhancement and suicidal thoughts were evaluated respectively according to the Montgomery-Asberg Depression Rating Scale (MADRS) item 6 and item 10, after 10 weeks of study treatment as assessed by the clinical rater. […] Remission rate of reduced ability to read/communicate is defined as a MADRS Item 6 total score at Baseline (Day 1)>3 to (end of) Week 10≤3 at Week 10 as assessed by the clinical rater. […] Change from baseline in total score on MADRS after the indicated period of study treatment as assessed by the clinical rater. […] Remission is defined as a MADRS total score ≤10 at the indicated period as assessed by the clinical rater. An international, double-blind, centrally randomized (stratified), multi-centre study in more than 400 patients suffering from moderate to severe MDD in up to 40 sites in the USA was conducted. […] Study visits were conducted 1, 2, 3, 4, 6, 8 and 10 weeks after study treatment initiation. Possible withdrawal effects were assessed 1 week after study treatment withdrawal. After 2, 3, 4, 6, and 10 weeks, patients were evaluated.

[10] = tested on: participants with major depressive disorder on continuing SSRI/SNRI; assay: placebo-controlled crossover study, mood questionnaire; format: in vivo, human
Protocol: Participants randomized to receive Treatment B were administered placebo containing drinkable water with […] flavor. Each study week the participants received 10 mL of their study medication in an amber glass bottle with dropper containing 200 droplets. […] The mood of the participants was also be measured using a questionnaire which evaluated going from very happy, relaxed, excited, not worried and fearful at all (1) to very sad, not relaxed and excited at all, extremely worried and fearful (5). This questionnaire was completed in the morning and in the evening.

[11] = prematurely discontinued patients
[12] = in particular after 6 weeks, even more so after 10 weeks

H1 receptor, sequence (P35367 whole entry): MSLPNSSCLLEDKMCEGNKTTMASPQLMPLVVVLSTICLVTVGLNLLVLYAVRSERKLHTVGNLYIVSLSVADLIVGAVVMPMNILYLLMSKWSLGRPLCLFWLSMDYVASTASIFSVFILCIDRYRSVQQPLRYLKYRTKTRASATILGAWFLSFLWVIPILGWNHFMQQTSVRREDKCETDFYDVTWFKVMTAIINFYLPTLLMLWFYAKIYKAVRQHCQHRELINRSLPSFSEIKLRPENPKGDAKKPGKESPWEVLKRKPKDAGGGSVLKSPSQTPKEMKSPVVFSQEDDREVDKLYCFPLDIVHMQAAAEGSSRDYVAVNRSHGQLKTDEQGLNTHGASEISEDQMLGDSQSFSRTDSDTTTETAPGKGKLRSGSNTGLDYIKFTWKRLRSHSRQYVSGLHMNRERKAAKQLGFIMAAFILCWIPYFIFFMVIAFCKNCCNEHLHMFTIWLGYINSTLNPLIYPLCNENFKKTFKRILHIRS

CN(C)CCCC1(c2ccc(F)cc2)OCc2cc(C#N)ccc21 (stereo not shown) [Citalopram, citalopram]
Decreased Appetite ([1]; all patients): 5.7% | Diarrhoea ([1]; all patients): 9.7% | Nausea ([1]; all patients): 16% | Somnolence ([1]; all patients): 11.4% | Decreased Appetite [1, 11]: 9% | Diarrhoea [1, 11]: 11% | Nausea [1, 11]: 18% | Somnolence [1, 11]: 16% | Vomiting [1, 11]: 9%

NC(=O)C1(N2CCCCC2)CCN(CCCC(=O)c2ccc(F)cc2)CC1 [pipamperone, 1′-[3-(p-fluorobenzoyl)propyl]-[1,4′-bipiperidine]-4′-carboxamide]
Sleep-related impairments, pipamperone 14 mg vs placebo [2]: no clear difference | MMSE score ([3]; PT1, after 3 weeks pipamperone 20 mg/day combined with 15 sessions tDCS 2 mA, 27 before treatment): 30 | MMSE total score ([3]; PT1, another 2 months after tDCS was terminated, pipamperone 20 mg/d continued): 30 /30 | MMSE ([3]; PT2 (severe cognitive deterioration, 18/30 before), after 6 weeks of treatment): 17 /30 | MMSE ([3]; PT3 (28/30 before), after treatment): 30 /30 | restored cognitive performance ([3]; PT3, continuous (6 months) intake of low dose pipamperone): sustained | affinity for the mACh receptors (mACh receptors): low and likely insignificant | SUBJECTIVE COGNITIVE DECLINE: NON RESPONDER ([4]; 14 mg ad noctum add-on, 6 participants): 17% | SUBJECTIVE COGNITIVE DECLINE: RESPONDER ([4]; 14 mg ad noctum add-on, 6 participants, Fisher exact test 0.0006, p<0.05): 50% | subjective cognitive function versus placebo ([4]; 14 mg, 14 days, add-on to SSRI/SNRI): statistical significant (p<0.05) improvement | improvement of cognitive functioning compared with placebo ([4]; the two participants with high MADRS item 6 score (XR0 and WL4), 14 mg): highest improvement | affinity for the D4 receptor over the D2 receptor (D4 receptor): 15 fold | affinity for the H1 receptor (H1 receptor): low and likely insignificant | insomnia [5]: improvement | reduction of the clinical restlessness events [5]: 75% | number of clinical restlessness events at night after treatment ([5]; 4 before): 1 | residual symptoms anhedonia and cognitive impairment ([6]; adjunctive 15 mg daily, MDD remittors): resolved | patients still responding to adjunctive treatment ([6]; after at least more than 1 year of treatment, n=53 of 62): 85% | tolerability of the treatment ([6]; long-term adjunctive treatment): extremely good tolerability | patients in sustained remission ([6]; printed as 'of these responders', n=25): 40% | cases that went into sustained remission after switch from existing adjunctive treatment ([6]; switched from quetiapine, amisulpride, risperidone or clozapine): 6 out of these 8 cases | sleep quality compared with placebo [7]: better quality of sleep | Karolinska Sleepiness Scale, pipamperone 14 mg vs placebo [8]: no clear difference | Decreased Appetite ([1]; all patients): 1.6% | Diarrhoea ([1]; all patients): 0.5% | Nausea ([1]; all patients): 7.7% | Somnolence ([1]; all patients): 6.6% | side effects overall (treatment emergent adverse effects, TEAE) compared to citalopram ([1]; all patients and prematurely discontinued patients): low amount of side effects | Decreased Appetite [1, 11]: 0% | Diarrhoea [1, 11]: 0% | Nausea [1, 11]: 6% | Somnolence [1, 11]: 8% | Vomiting [1, 11]: 0% | side effects in subjects who discontinued the trial prematurely [1, 11]: significantly fewer side effects | cognitive enhancement rate (remission of reduced ability to read/communicate, MADRS item 6) compared to citalopram ([9]; after 10 weeks of treatment): superior | cognitive function (MADRS item 6, change from baseline) compared to citalopram ([9]; after 10 weeks, 15 mg QD): Statistically significant superior effect; also recorded: statistically significant enhancement | suicidal thoughts (MADRS item 10, change from baseline) compared to citalopram ([9]; after 10 weeks, 15 mg QD): Statistically significant superior effect; also recorded: significant reduction | decrease of severity of major depressive disorder (MADRS total score) compared to citalopram [9, 12]: superior decrease | proportion of patients in remission of major depressive disorder (MADRS total score ≤10) compared to citalopram [9, 12]: superior increase | Mood, pipamperone 14 mg vs placebo [10]: no clear difference
